Reference: ChEMBL document CHEMBL1121684, “Selective and potent beta 2-adrenoceptor agents within the tetrahydroisoquinoline class: effect of methyl substitution at the benzylic carbon of the 1-(3,4,5-trimethoxybenzyl) group of trimetoquinol” (J Med Chem, 1981)

Key:
[1] = biological target: Beta-2 adrenergic receptor (Cavia porcellus) (UniProt Q8K4Z4)
Description: Beta-2 adrenergic receptor activity in guinea pig tracheal smooth muscle

[2] = test system: Beta-1 adrenergic receptor (Cavia porcellus); conditions: Cardiac atrium

Beta-2 adrenergic receptor (Cavia porcellus), sequence (Q8K4Z4 whole entry, looked up): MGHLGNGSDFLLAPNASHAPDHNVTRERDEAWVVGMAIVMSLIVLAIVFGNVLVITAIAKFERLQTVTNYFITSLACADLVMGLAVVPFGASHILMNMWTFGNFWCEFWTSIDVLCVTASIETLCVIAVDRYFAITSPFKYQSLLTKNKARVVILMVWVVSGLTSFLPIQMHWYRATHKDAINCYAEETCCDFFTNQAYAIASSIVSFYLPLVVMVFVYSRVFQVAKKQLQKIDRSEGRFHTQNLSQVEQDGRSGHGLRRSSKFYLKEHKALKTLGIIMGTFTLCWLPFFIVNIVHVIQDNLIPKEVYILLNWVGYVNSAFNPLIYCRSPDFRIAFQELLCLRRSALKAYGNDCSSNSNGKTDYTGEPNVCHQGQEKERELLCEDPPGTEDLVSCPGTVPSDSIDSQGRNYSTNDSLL

| SMILES | pD2 [1] | pD2 [2] |
| --- | --- | --- |
| COc1cc(C[C@@H]2NCCc3cc(O)c(O)cc32)cc(OC)c1OC | 8.15 | – |
| COc1cc([C@@H](C)[C@@H]2NCCc3cc(O)c(O)cc32)cc(OC)c1OC | 8.39 | 7.35 |
| COc1cc(C(C)(C)[C@@H]2NCCc3cc(O)c(O)cc32)cc(OC)c1OC | 4.47 | – |
| COc1cc([C@H](C)[C@@H]2NCCc3cc(O)c(O)cc32)cc(OC)c1OC | 7.15 | 6.67 |
